Reference: article PMC9409066, “Functional Characterization of the Venus Flytrap Domain of the Human TAS1R2 Sweet Taste Receptor” (International Journal of Molecular Sciences, 2022)
Positions count from the first letter of the chain named. Like-named read-outs stand apart in the source and are kept apart here. Marks after values point to notes of the source that are not given here. Residues, ends and D or L forms follow the SMILES beside them.

Tests used:
[1] = tested on: human panels; settings: molar basis, cited from earlier work
[2] = tested on: full-length hTAS1R2/hTAS1R3 receptor D278A; design: method as in PMID 22536376; settings: cellular-based assay; cited from earlier work
[3] = biological target: human TAS1R3-VFT; design: method as in PMID 22450161; settings: cited from earlier work
[4] = tested on: full-length hTAS1R2/hTAS1R3 receptor E382A; design: method as in PMID 22536376; settings: cellular assays; cited from earlier work
[5] = biological target: T1, hTAS1R2-VFT (Homo sapiens, UniProt Q8TE23); assay: Intrinsic tryptophan fluorescence ligand binding, hTAS1R2-VFT
T1 construct: followed by hTAS1R2-VFT (Ala22-Ser493) and another His6-tag at the C-terminus; His6 (thrombin-cleavable) (N); made in house
T1 sequence (Q8TE23 22-493): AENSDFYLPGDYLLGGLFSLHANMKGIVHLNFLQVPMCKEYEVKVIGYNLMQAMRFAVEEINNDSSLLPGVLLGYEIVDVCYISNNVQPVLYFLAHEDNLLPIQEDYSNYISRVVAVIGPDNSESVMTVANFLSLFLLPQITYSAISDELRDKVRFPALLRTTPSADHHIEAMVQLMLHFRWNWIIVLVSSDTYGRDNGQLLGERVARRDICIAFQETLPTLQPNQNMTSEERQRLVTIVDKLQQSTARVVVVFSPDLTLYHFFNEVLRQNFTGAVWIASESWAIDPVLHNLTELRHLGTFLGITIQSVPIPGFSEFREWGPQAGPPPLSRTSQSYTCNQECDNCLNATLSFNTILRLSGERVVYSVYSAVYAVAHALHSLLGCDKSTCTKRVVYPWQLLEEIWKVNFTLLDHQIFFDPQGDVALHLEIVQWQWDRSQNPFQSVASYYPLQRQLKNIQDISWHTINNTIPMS
From the text: Therefore, we tested the binding affinity of hTAS1R2-VFT using an intrinsic tryptophan fluorescence assay. This approach allows one to measure protein–ligand interactions by measuring the fluorescence emitted by tryptophan residues upon the titration of sweet ligands. This technique is very sensitive to changes in the local environment of fluorescent amino acid residues within a protein and has been used to measure protein–ligand binding interactions with mouse, human and cat TAS1R-VFTs. For this purpose, we determined the concentration response relationships for the intrinsic tryptophan fluorescence of hTAS1R2-VFT upon the addition of various sweet compounds.
Figure 4 Binding properties of hTAS1R2-VFT assessed by intrinsic tryptophan fluorescence. Titration curves of hTAS1R2-VFT were generated with natural sugars (pink circles) or sweeteners (blue circles). Circles show experimental data, while the solid lines are the computed binding curves; excitation and emission wavelengths were 295 nm and 340 nm, respectively; hTAS1R2-VFT concentration, 0.5 µM. Data points correspond to the means ± SEMs of at least 12 independent replicates of at least three independently refolded protein samples, except for glucose, 6 independent replicates over three independently refolded protein samples.
All measurements were conducted at 20 °C using a Cary Eclipse spectrofluorimeter (Agilent Technologies, Santa Clara, CA, USA) equipped with a Peltier temperature control unit with a 5 nm bandwidth for emission and excitation. Ligand binding experiments with 0.5 µM hTAS1R2-VFTs were performed in buffer composed of 50 mM Tris-HCl pH 8, 150 mM NaCl, 0.5 mM DDM and 1 mM DTT. The intrinsic fluorescence of hTAS1R2-VFTs was measured at an excitation wavelength of 295 nm, and emission spectra were recorded from 320 to 380 nm. Fluorescence emission values were collected at 340 nm wavelength in the presence and absence of sweet ligands. A range of ligand concentrations were freshly prepared in 50 mM Tris-HCl pH 8.0. For titration experiments, successive 0.4 µL aliquots of sweeteners were added to 400 µL of hTAS1R2-VFT solution. Fluorescence measurements were corrected for bleaching, dilution and nonspecific buffer quenching. The dissociation constants (Kd) were calculated from a plot of the ratio between the fluorescence intensity variation and the maximum fluorescence intensity variation (ΔF/ΔFmax) versus the concentration of the total ligand. Assuming that the binding of hTAS1R2-VFT to sweet compounds is described by a one-site binding model, the Kd values of ligand–receptor interactions were determined with a standard nonlinear regression method using SigmaPlot 12.5 software (Systat Software, Inc., San Jose, CA, USA) as previously described. For each ligand, the experiment was repeated on at least twelve cells over at least three different batches of refolded hTAS1R2-VFT.

[6] = biological target: T2, human TAS1R2/TAS1R3 receptor (Homo sapiens, UniProt Q7RTX0+Q8TE23); settings: cellular assays, cited from earlier work
T2 sequence (Q8TE23 20-839): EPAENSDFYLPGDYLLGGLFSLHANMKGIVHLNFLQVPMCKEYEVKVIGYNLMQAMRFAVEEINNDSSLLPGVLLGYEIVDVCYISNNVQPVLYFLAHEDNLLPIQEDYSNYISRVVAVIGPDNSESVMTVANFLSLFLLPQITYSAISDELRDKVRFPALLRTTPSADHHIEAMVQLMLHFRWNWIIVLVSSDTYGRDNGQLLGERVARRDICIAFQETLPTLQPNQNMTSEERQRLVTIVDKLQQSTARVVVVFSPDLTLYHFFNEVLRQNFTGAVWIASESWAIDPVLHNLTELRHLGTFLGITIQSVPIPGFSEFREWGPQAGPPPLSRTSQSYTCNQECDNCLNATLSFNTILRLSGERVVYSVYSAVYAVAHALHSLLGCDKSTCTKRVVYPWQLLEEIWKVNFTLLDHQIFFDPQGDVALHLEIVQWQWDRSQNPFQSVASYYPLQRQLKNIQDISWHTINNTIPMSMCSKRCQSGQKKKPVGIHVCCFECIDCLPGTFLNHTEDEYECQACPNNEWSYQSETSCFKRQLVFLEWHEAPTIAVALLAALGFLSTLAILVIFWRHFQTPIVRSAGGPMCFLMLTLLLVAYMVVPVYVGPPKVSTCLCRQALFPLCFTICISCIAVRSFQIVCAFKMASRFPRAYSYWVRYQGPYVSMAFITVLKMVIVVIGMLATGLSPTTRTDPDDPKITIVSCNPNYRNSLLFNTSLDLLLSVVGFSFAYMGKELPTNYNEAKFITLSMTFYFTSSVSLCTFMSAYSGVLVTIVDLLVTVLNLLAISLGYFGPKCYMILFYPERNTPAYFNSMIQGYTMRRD
T2 sequence (Q7RTX0 21-852): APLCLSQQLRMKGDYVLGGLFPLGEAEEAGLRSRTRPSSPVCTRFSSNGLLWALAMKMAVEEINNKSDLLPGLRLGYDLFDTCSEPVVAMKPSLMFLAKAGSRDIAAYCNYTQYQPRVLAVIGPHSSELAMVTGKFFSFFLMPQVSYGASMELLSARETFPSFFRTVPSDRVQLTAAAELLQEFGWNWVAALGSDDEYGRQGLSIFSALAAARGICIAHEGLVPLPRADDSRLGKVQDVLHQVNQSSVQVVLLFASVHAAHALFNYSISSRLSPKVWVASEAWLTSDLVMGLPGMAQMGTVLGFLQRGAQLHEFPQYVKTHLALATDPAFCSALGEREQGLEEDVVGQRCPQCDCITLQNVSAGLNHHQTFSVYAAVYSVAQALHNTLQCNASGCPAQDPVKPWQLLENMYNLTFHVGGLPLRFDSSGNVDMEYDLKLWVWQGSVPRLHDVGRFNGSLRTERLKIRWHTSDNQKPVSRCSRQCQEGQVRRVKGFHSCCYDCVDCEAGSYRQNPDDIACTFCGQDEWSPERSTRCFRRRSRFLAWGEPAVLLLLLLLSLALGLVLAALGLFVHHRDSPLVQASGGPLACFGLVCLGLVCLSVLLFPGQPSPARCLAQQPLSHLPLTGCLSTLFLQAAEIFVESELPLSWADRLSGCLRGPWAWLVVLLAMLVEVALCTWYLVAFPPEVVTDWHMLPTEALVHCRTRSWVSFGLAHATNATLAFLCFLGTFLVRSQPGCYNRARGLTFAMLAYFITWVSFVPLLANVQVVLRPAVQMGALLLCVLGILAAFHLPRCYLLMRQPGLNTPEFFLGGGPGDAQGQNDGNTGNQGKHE

[7] = biological target: T2, human TAS1R2/TAS1R3 receptor; assay: Cellular-based assay of the sweet taste receptor (EC50); assay type: cell-based
From the text: We determined its affinity constants for natural sugars using dose–response curves.

[8] = biological target: T3, hTAS1R2-VFT-D278A (Homo sapiens, UniProt Q8TE23, D278A); assay: Intrinsic tryptophan fluorescence ligand binding, mutant D278A; settings: Table 2, read-out: Apparent Kd hTAS1R2-VFT-D278A
T3 construct: followed by hTAS1R2-VFT (Ala22-Ser493) and another His6-tag at the C-terminus; His6 (thrombin-cleavable) (N); made in house
T3 sequence (Q8TE23 22-493 D278A): T1 sequence (Q8TE23 22-493) with D257A
From the text: To further confirm that the binding is specific, we performed mutagenesis studies on hTAS1R2-VFT. […] We performed ligand-binding titration assays in the same way as for hTAS1R2-VFT for the two point mutants.
Figure 5 Titration curves of hTAS1R2-VFT-D278A (blue triangles) and hTAS1R2-VFT (black circles) with sucralose (A) and aspartame (B). Circles and triangles show experimental data, while the solid lines are the computed binding curves. Wild-type receptor dose–responses are the same as for Figure 4. Data points correspond to the means ± SEMs of at least 12 independent replicates of at least three independently refolded protein samples.
All measurements were conducted at 20 °C using a Cary Eclipse spectrofluorimeter (Agilent Technologies, Santa Clara, CA, USA) equipped with a Peltier temperature control unit with a 5 nm bandwidth for emission and excitation. Ligand binding experiments with 0.5 µM hTAS1R2-VFTs were performed in buffer composed of 50 mM Tris-HCl pH 8, 150 mM NaCl, 0.5 mM DDM and 1 mM DTT. The intrinsic fluorescence of hTAS1R2-VFTs was measured at an excitation wavelength of 295 nm, and emission spectra were recorded from 320 to 380 nm. Fluorescence emission values were collected at 340 nm wavelength in the presence and absence of sweet ligands. […] Fluorescence measurements were corrected for bleaching, dilution and nonspecific buffer quenching. […]

[9] = in water equivalent to 2% sucrose, ref Schiffman and Gatlin, 1993
[10] = Table 1, intrinsic fluorescence, 0.5 µM protein, 20 °C, pH 8, read-out: hTAS1R2-VFT (Kd)
[11] = in water equivalent to 2% sucrose, ref Bassoli et al., 2002
[12] = in water equivalent to 5% sucrose, ref Shallenberger, 1993

SMILES	Sweetness Potency [1, 9]	Kd [5, 10] [µM]	further results
O=S(=O)(O)NC1CCCCC1 [Cyclamate]	26 ^e	–	–
OC[C@H]1O[C@H](O[C@]2(CCl)O[C@H](CCl)[C@@H](O)[C@@H]2O)[C@H](O)[C@@H](O)[C@H]1Cl [Sucralose]	600 ^e	7 ± 1.3	effect of D278A on the full-length receptor response [2]: abolish the response; binding affinity for human TAS1R3-VFT [3]: millimolar range; effect of E382A on the full-length receptor response [4]: reduces
CC1=CC(=O)NS(=O)(=O)O1 [Acesulfame-K]	200 ^e	0.9 ± 0.2	effect of E382A on the full-length receptor response [4]: abolishes
C=C(C)[C@@H]1CC=C(/C=N/O)CC1 [Perillartine]	–	–	Sweetness Potency [1, 11]: 1000 ^g; EC50 ([6]; ref Belloir et al., 2021): 2.54 ± 0.48 µM
OC[C@H]1O[C@@](CO)(O[C@H]2O[C@H](CO)[C@@H](O)[C@H](O)[C@H]2O)[C@@H](O)[C@@H]1O [Sucrose]	1 ^e	4200 ± 900	EC50 ([7]; cellular assays, unpublished data from our laboratory, read-out: EC50): 11000 ± 3000 µM
O=C1NS(=O)(=O)c2ccccc21 [Saccharin]	500 ^e	–	–
O=C(CO)[C@@H](O)[C@H](O)[C@H](O)CO [Fructose]	0.7 ^e	–	EC50 [7]: 8000 ± 4000 µM; Kd [5]: 900 ± 200 µM
COC(=O)[C@H](Cc1ccccc1)NC(=O)[C@H](CC(=O)O)NCCC(C)(C)C [Neotame]	–	0.09 ± 0.02	Sweetness Potency [1, 11]: 11,000 ^g
OC[C@H]1OC(O)[C@H](O)[C@@H](O)[C@@H]1O (some centres unmarked) [Glucose]	–	1500 ± 300	Sweetness Potency [1, 12]: 0.6 ^f
COC(=O)[C@H](Cc1ccccc1)NC(=O)[C@@H](N)CC(=O)O [Aspartame] (H-Asp-Phe-OMe)	250 ^e	17.2 ± 3.1	effect of D278A on the full-length receptor response [2]: decrease the response; EC50 ([6]; ref Masuda et al., 2012): 75 ± 11 µM; Kd [8]: 223 ± 27.7 µM
OC[C@H]1O[C@@H](O[C@H]2[C@H](O)[C@@H](O)C(O)O[C@@H]2CO)[C@H](O)[C@@H](O)[C@H]1O (mixture of isomers) [Lactose]	–	> 70000	Sweetness Potency [1, 12]: 0.3 ^f
C[C@@H](NC(=O)[C@@H](N)CC(=O)O)C(=O)NC1C(C)(C)SC1(C)C [Alitame]	4500 ^e	0.15 ± 0.03	EC50 ([6]; ref unpublished data obtained from collaborators): 13.8 ± 0.3 µM
